Test results from patent US8952024B2, “Herbicidal pyrimidone derivatives” (E I du Pont de Nemours and Company, priority 2009, dated 2015).

Key:
Format in all cases: in vivo
[1] = tested on: water seeded rice seedlings (Oryza sativa cv. ‘Japonica—M202’); assay: Test E flooded paddy rice and weeds; settings: applied to paddy water, 21 days, scale 0 to 100
Text: (§1) Three plastic pots (ca. 16-cm diameter) for each application were partially filled with sterilized Tama silt loam soil comprising a 35:50:15 ratio of sand, silt and clay and 2.6% organic matter. Separate plantings for each of the three pots were as follows. Seeds from the U.S. of ducksalad (Heteranthera limosa), sedge (smallflower umbrella sedge, Cyperus difformis), ricefield bulrush (Scirpus mucronatus) and redstem (purple redstem, Ammannia coccinea), were planted into one 16-cm pot for each rate. Seeds from the U.S. of flatsedge (rice flatsedge, Cyperus iria), sprangletop (bearded (i.e. Brdd.) sprangletop, Leptochloa fascicularis), one stand of 9 or 10 water seeded rice seedlings (Oryza sativa cv. ‘Japonica—M202’), and two stands of 3 or 4 transplanted rice seedlings (Oryza sativa cv. ‘Japonica—M202’) were planted into one 16-cm pot for each rate. Seeds from the U.S. of barnyardgrass (Echinochloa crus-galli), late watergrass (Echinochloa oryzicola), early watergrass (Echinochloa oryzoides) and junglerice (Echinochloa colona) were planted into one 16-cm pot for each rate. Plantings were sequential so that crop and weed species were at the 2.0 to 2.5-leaf stage at time of treatment.
(§2) Potted plants were grown in a greenhouse with day/night temperature settings of 30/27° C., and supplemental balanced lighting was provided to maintain a 16-hour photoperiod. Test pots were maintained in the greenhouse until test completion.
(§3) At time of treatment, test pots were flooded to 3 cm above the soil surface, treated by application of test compounds directly to the paddy water, and then maintained at that water depth for the duration of the test. Effects of treatments on rice and weeds were visually evaluated by comparison to untreated controls after 21 days. Plant response ratings, summarized in Table E, are based on a scale of 0 to 100 where 0 is no effect and 100 is complete control. A dash (-) response means no test result.

[2] = tested on: redstem (purple redstem, Ammannia coccinea); assay: Test E flooded paddy rice and weeds; settings: applied to paddy water, 21 days, scale 0 to 100
Text: as §1, §2, §3

[3] = tested on: junglerice (Echinochloa colona); assay: Test E flooded paddy rice and weeds; settings: applied to paddy water, 21 days, scale 0 to 100
Text: as §1, §2, §3

[4] = tested on: flatsedge (rice flatsedge, Cyperus iria); assay: Test E flooded paddy rice and weeds; settings: applied to paddy water, 21 days, scale 0 to 100
Text: as §1, §2, §3

[5] = tested on: sedge (smallflower umbrella sedge, Cyperus difformis); assay: Test E flooded paddy rice and weeds; settings: applied to paddy water, 21 days, scale 0 to 100
Text: as §1, §2, §3

[6] = tested on: late watergrass (Echinochloa oryzicola); assay: Test E flooded paddy rice and weeds; settings: applied to paddy water, 21 days, scale 0 to 100
Text: as §1, §2, §3

[7] = tested on: transplanted rice seedlings (Oryza sativa cv. ‘Japonica—M202’); assay: Test E flooded paddy rice and weeds; settings: applied to paddy water, 21 days, scale 0 to 100
Text: as §1, §2, §3

[8] = tested on: early watergrass (Echinochloa oryzoides); assay: Test E flooded paddy rice and weeds; settings: applied to paddy water, 21 days, scale 0 to 100
Text: as §1, §2, §3

[9] = tested on: barnyardgrass (Echinochloa crus-galli); assay: Test E flooded paddy rice and weeds; settings: applied to paddy water, 21 days
Text: as §1, §2, §3

[10] = tested on: ducksalad (Heteranthera limosa); assay: Test E flooded paddy rice and weeds; settings: applied to paddy water, 21 days, scale 0 to 100
Text: as §1, §2, §3

[11] = tested on: ricefield bulrush (Scirpus mucronatus); assay: Test E flooded paddy rice and weeds; settings: applied to paddy water, 21 days, scale 0 to 100
Text: as §1, §2, §3

[12] = tested on: naked crabgrass (Digitaria nuda); assay: Test D pre-/postemergence plant response; settings: Preemergence, scale 0 to 100
In short: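 Seeds in loam–sand blend treated preemergence, and plants at 1- to 4-leaf stage (2–18 cm) treated postemergence, with compounds in non-phytotoxic solvent with surfactant. Greenhouse for 14–21 days, then visual rating against controls, 0 (no effect) to 100 (complete control).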

In the case of `Cc1ccc(-n2c(-c3ccccc3)ncc(C(=O)C3=C(O)CCCC3=O)c2=O)c(C)c1` [Compound 28], the “Plant response rating, Rice, Water Seeded, Flood” value ([1]; 32 g ai/ha) is reported as 45, the “Plant response rating, Rice, Water Seeded, Flood” value ([1]; 64 g ai/ha) is reported as 60 and the “Plant response rating, Rice, Water Seeded, Flood” value ([1]; 125 g ai/ha) is reported as 65. The “Plant response rating, Rice, Water Seeded, Flood” value ([1]; 250 g ai/ha) was 85, the “Plant response rating, Redstem, Flood” value ([2]; 32 g ai/ha) was 0 and the “Plant response rating, Redstem, Flood” value ([2]; 64 g ai/ha) was 40. For the same compound, the “Plant response rating, Redstem, Flood” value ([2]; 125 g ai/ha) was 50, the “Plant response rating, Redstem, Flood” value ([2]; 250 g ai/ha) was 90 and the “Plant response rating, Junglerice, Flood” value ([3]; 32 g ai/ha) was 0. The “Plant response rating, Junglerice, Flood” value ([3]; 64 g ai/ha) was 0, the “Plant response rating, Junglerice, Flood” value ([3]; 125 g ai/ha) was 0 and the “Plant response rating, Junglerice, Flood” value ([3]; 250 g ai/ha) was 0. For the same compound, the “Plant response rating, Flatsedge, Rice, Flood” value ([4]; 32 g ai/ha) was 0, the “Plant response rating, Flatsedge, Rice, Flood” value ([4]; 64 g ai/ha) was 0 and the “Plant response rating, Flatsedge, Rice, Flood” value ([4]; 125 g ai/ha) was 0. For the same compound, the “Plant response rating, Flatsedge, Rice, Flood” value ([4]; 250 g ai/ha) was 45, the “Plant response rating, Sedge, Umbrella, Flood” value (“Plant response rating, Sedge” for short) ([5]; 32 g ai/ha) was 0 and the “Plant response rating, Sedge” value ([5]; 64 g ai/ha) was 85. For the same compound, the “Plant response rating, Sedge” value ([5]; 125 g ai/ha) was 90, the “Plant response rating, Sedge” value ([5]; 250 g ai/ha) was 100 and the “Plant response rating, Watergrass, Late, Flood” value ([6]; 32 g ai/ha) was 0. The “Plant response rating, Watergrass, Late, Flood” value ([6]; 64 g ai/ha) was 0, the “Plant response rating, Watergrass, Late, Flood” value ([6]; 125 g ai/ha) was 0 and the “Plant response rating, Watergrass, Late, Flood” value ([6]; 250 g ai/ha) was 0. The “Plant response rating, Rice, Transplanted, Flood” value ([7]; 32 g ai/ha) was 0, the “Plant response rating, Rice, Transplanted, Flood” value ([7]; 64 g ai/ha) was 15 and the “Plant response rating, Rice, Transplanted, Flood” value ([7]; 125 g ai/ha) was 15. The “Plant response rating, Rice, Transplanted, Flood” value ([7]; 250 g ai/ha) was 15, the “Plant response rating, Watergrass, Early, Flood” value ([8]; 32 g ai/ha) was 0 and the “Plant response rating, Watergrass, Early, Flood” value ([8]; 64 g ai/ha) was 0. The “Plant response rating, Watergrass, Early, Flood” value ([8]; 125 g ai/ha) was 0, the “Plant response rating, Watergrass, Early, Flood” value ([8]; 250 g ai/ha) was 20 and the “Plant response rating, Barnyardgrass, Flood” value ([9]; 32 g ai/ha, scale 0 to 100) was 0. For the same compound, the “Plant response rating, Barnyardgrass, Flood” value ([9]; 64 g ai/ha, scale 0 to 100) was 0, the “Plant response rating, Barnyardgrass, Flood” value ([9]; 125 g ai/ha, scale 0 to 100) was 0 and the “Plant response rating, Barnyardgrass, Flood” value ([9]; 250 g ai/ha, scale 0 to 100) was 0. The “Plant response rating, Ducksalad, Flood” value ([10]; 32 g ai/ha) was 0, the “Plant response rating, Ducksalad, Flood” value ([10]; 64 g ai/ha) was 0 and the “Plant response rating, Ducksalad, Flood” value ([10]; 125 g ai/ha) was 80. The “Plant response rating, Ducksalad, Flood” value ([10]; 250 g ai/ha) was 100, the “Plant response rating, Bulrush, Ricefield, Flood” value (shortened to “Plant response rating, Bulrush”) ([11]; 32 g ai/ha) was 20 and the “Plant response rating, Bulrush” value ([11]; 64 g ai/ha) was 30. For the same compound, the “Plant response rating, Bulrush” value ([11]; 125 g ai/ha) was 35 and the “Plant response rating, Bulrush” value ([11]; 250 g ai/ha) was 65.
With `COc1ccc(-n2c(-c3ccccc3)ncc(C(=O)C3=C(O)CCCC3=O)c2=O)cc1` [Compound 4, 5-[(2-hydroxy-6-oxo-cyclohexen-1-yl)carbonyl]-3-(4-methoxyphenyl)-2-phenyl-4(3H)-pyrimidinone] the “Plant response rating, Rice, Water Seeded, Flood” value ([1]; 125 g ai/ha) was 10, the “Plant response rating, Rice, Water Seeded, Flood” value ([1]; 250 g ai/ha) was 20 and the “Plant response rating, Rice, Water Seeded, Flood” value ([1]; 500 g ai/ha) was 50. For the same compound, the “Plant response rating, Redstem, Flood” value ([2]; 125 g ai/ha) was 80, the “Plant response rating, Redstem, Flood” value ([2]; 250 g ai/ha) was 80 and the “Plant response rating, Redstem, Flood” value ([2]; 500 g ai/ha) was 85. For the same compound, the “Plant response rating, Junglerice, Flood” value ([3]; 125 g ai/ha) was 0, the “Plant response rating, Junglerice, Flood” value ([3]; 250 g ai/ha) was 25 and the “Plant response rating, Junglerice, Flood” value ([3]; 500 g ai/ha) was 50. The “Plant response rating, Flatsedge, Rice, Flood” value ([4]; 125 g ai/ha) was 0, the “Plant response rating, Flatsedge, Rice, Flood” value ([4]; 250 g ai/ha) was 40 and the “Plant response rating, Flatsedge, Rice, Flood” value ([4]; 500 g ai/ha) was 90. The “Plant response rating, Sedge” value ([5]; 125 g ai/ha) was 90, the “Plant response rating, Sedge” value ([5]; 250 g ai/ha) was 95 and the “Plant response rating, Sedge” value ([5]; 500 g ai/ha) was 100. For the same compound, the “Plant response rating, Watergrass, Late, Flood” value ([6]; 125 g ai/ha) was 0, the “Plant response rating, Watergrass, Late, Flood” value ([6]; 250 g ai/ha) was 15 and the “Plant response rating, Watergrass, Late, Flood” value ([6]; 500 g ai/ha) was 60. For the same compound, the “Plant response rating, Rice, Transplanted, Flood” value ([7]; 125 g ai/ha) was 0, the “Plant response rating, Rice, Transplanted, Flood” value ([7]; 250 g ai/ha) was 0 and the “Plant response rating, Rice, Transplanted, Flood” value ([7]; 500 g ai/ha) was 15. The “Plant response rating, Watergrass, Early, Flood” value ([8]; 125 g ai/ha) was 0, the “Plant response rating, Watergrass, Early, Flood” value ([8]; 250 g ai/ha) was 60 and the “Plant response rating, Watergrass, Early, Flood” value ([8]; 500 g ai/ha) was 65. For the same compound, the “Plant response rating, Barnyardgrass, Flood” value ([9]; 125 g ai/ha, scale 0 to 100) was 0, the “Plant response rating, Barnyardgrass, Flood” value ([9]; 250 g ai/ha, scale 0 to 100) was 60 and the “Plant response rating, Barnyardgrass, Flood” value ([9]; 500 g ai/ha, scale 0 to 100 (0 no effect, 100 complete control)) was 60. The “Plant response rating, Ducksalad, Flood” value ([10]; 125 g ai/ha) was 90, the “Plant response rating, Ducksalad, Flood” value ([10]; 250 g ai/ha) was 100 and the “Plant response rating, Ducksalad, Flood” value ([10]; 500 g ai/ha) was 100. The “Plant response rating, Bulrush” value ([11]; 125 g ai/ha) was 40, the “Plant response rating, Bulrush” value ([11]; 250 g ai/ha) was 80 and the “Plant response rating, Bulrush” value ([11]; 500 g ai/ha) was 80.
With `COCCn1c(-c2cc(F)cc(F)c2)ncc(C(=O)C2=C(O)C3CCC(C3)C2=O)c1=O` (centres unmarked) [Compound 243, 2-(3,5-difluorophenyl)-5-[(2-hydroxy-4-oxobicyclo[3.2.1]oct-2-en-3-yl)carbonyl]-3-(2-methoxyethyl)-4(3H)-pyrimidinone] the “Plant response rating, Crabgrass, Naked” value ([12]; 62 g ai/ha) was 100, the “Plant response rating, Crabgrass, Naked” value ([12]; 125 g ai/ha) was 100 and the “Plant response rating, Crabgrass, Naked” value ([12]; 250 g ai/ha) was 100.
